These results are taken from patent US7517517B2 (Janssen Pharmaceutica N.V., priority 2002, dated 2009).

The structures appear in SMILES notation.

One may read the IC50 as the midpoint of a concentration-inhibition curve. Read a high IC50 as weaker potency.

The first test deals with T1, cloned rat mGlu1 receptor (Rattus norvegicus, UniProt P23385).
T1 construct: expressed in transfected cells; host or cells: CHO cells
T1 sequence (P23385 19-1199): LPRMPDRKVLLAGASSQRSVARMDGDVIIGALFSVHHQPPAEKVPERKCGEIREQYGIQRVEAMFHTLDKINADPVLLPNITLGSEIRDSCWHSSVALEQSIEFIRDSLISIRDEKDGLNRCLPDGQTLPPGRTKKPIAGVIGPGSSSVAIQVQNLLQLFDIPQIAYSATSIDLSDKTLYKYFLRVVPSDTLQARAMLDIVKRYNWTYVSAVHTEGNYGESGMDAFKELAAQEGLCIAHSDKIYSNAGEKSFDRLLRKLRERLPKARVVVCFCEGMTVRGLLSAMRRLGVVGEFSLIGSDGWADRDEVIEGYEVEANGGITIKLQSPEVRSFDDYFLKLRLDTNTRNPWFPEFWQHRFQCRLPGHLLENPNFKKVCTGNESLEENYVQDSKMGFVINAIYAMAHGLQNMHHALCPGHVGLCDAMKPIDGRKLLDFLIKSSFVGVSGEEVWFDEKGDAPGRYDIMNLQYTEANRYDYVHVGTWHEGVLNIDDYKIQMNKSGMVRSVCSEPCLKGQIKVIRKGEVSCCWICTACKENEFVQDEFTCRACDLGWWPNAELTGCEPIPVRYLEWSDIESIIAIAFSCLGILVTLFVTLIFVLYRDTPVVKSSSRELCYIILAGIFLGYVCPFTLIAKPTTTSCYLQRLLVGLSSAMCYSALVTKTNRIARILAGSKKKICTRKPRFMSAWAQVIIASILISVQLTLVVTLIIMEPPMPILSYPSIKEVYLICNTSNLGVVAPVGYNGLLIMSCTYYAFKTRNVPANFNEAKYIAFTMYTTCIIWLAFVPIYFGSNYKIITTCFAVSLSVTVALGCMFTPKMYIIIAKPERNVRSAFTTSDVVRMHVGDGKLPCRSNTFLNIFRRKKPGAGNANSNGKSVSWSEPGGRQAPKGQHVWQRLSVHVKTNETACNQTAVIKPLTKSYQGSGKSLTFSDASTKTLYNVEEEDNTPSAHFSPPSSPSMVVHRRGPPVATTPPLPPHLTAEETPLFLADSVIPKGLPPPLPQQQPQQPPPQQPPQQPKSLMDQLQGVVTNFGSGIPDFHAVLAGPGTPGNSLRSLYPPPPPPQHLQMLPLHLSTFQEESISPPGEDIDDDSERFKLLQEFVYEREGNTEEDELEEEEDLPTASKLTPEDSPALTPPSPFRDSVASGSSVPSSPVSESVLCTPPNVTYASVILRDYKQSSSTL
Nature of the test: Signal transduction at the cloned rat mGlu1 receptor in CHO cells (glutamate-induced Ca2+ rise, FLIPR). Format: cell-based. Conditions: 50% inhibition of the glutamate-induced intracellular Ca2+ rise; CHO cells, FLIPR.
`COC1CCC(C(=O)c2ccc3nc4c(cc3c2)CCCO4)CC1` (centres unmarked) [Compound 174] had an IC50 of 3.24 nM. On the same count and under the same terms, the result for `COC1CCC(C(=O)c2ccc3nc4c(cc3c2)CCCS4)CC1` (centres unmarked) [Compound 176] reads 4.68 nM; that for `CCc1cc2cc(C(=O)C3CCC(OC)CC3)c(C)cc2nc1Cl` (centres unmarked) [Compound 210], 4.84 nM. `CCc1cc2cc(C(=O)C3CCC(OC)CC3)c(C)cc2nc1C` (centres unmarked) [Compound 214] had an IC50 of 5.85 nM. This IC50 and that of the molecule before are within 1.5-fold of each other. `CCc1cc2cc(C(=O)Cc3ccccc3)ccc2nc1C` [Compound 237] gave an IC50 of 9.77 nM. On to `CO[C@H]1CC[C@@H](C(=O)c2ccc3nc4c(cc3c2)CCS4)CC1` [Compound 416], for which the IC50 is 2.59 nM. `CO[C@H]1CC[C@H](C(=O)c2ccc3nc4c(cc3c2)CCS4)CC1` [Compound 418] had an IC50 of 9.02 nM. For the molecule `CCc1cc2cc(C(=O)[C@H]3CC[C@@H](OC)CC3)c(C)cc2[nH]c1=O` [Compound 419], the IC50 is 8.61 nM.

In the case of `COC1CCC(C(=O)c2ccc3nc4c(cc3c2)CCCC4)CC1` (centres unmarked) [Compound 420], the IC50 is 7.33 nM. The IC50 values of the last two molecules are within 1.5-fold of each other. `O=C(c1ccc2nc3c(cc2c1)CCS3)C1CCCCC1` [Compound 427] showed a 50% inhibitory concentration (IC50) of 7.67 nM. The IC50 values of the last two molecules are within 1.5-fold of each other.

`COC1CCC(C(=O)c2ccc3nc4c(cc3c2)CCO4)CC1` (centres unmarked) [Compound 429] showed an IC50 of 4.17 nM. Consider `O=C(Cc1ccccc1)c1ccc2nc3c(cc2c1)CCCO3` [Compound 432], for which the IC50 is 5.79 nM.

As to `O=C(Cc1ccccc1)c1ccc2nc3c(cc2c1)CCCS3` [Compound 439], the half-maximal inhibitory concentration (IC50) is 9.48 nM.

The same test, now with this note: inhibition of glutamate-induced intracellular Ca2+ rise, CHO cells expressing mGlu1 receptor; compounds with pIC50 between 7 and 8.
The molecule `CCc1cc2cc(C(=O)[C@H]3CCC[C@H](OC)C3)ccc2nc1Cl` (relative stereo) [Compound 239] showed an IC50 of 20 nM. This lies in the double-digit nanomolar range. In turn, `CCc1cc2cc(C(=O)C3(F)CCC(OC)CC3)ccc2nc1Cl` (single isomer, unassigned) [Compound 220] had an IC50 of 13.5 nM. For `CCc1cc2cc(C(=O)C3(F)CCC(OC)CC3)ccc2nc1Cl` (single isomer, unassigned) [Compound 221], it took 61.7 nM to reach half-maximal inhibition (IC50). The molecule `CCc1cc2cc(C(=O)[C@H]3CC[C@@H](OC)CC3)ccc2[nH]c1=S` [Compound 36] showed an IC50 of 100 nM. In turn, `COc1ccc2cc(C(=O)[C@H]3CC[C@@H](OC)CC3)ccc2n1` [Compound 91] showed an IC50 of 37.2 nM.

In turn, `CCCc1cc2cc(C(=O)[C@H]3CC[C@@H](OC)CC3)ccc2nc1OC` [Compound 97] gave an IC50 of 83.2 nM. As for `COc1nc2ccc(C(=O)[C@H]3CC[C@@H](OC)CC3)cc2cc1C` [Compound 98], inhibition was half-maximal at 26.9 nM (IC50). `CCc1c(C)nc2ccc(C(=O)[C@H]3CC[C@@H](OC)CC3)cc2c1CC` [Compound 108] had an IC50 of 56.2 nM. In the case of `CCc1cc2cc(C(=O)C3CC=CCC3)ccc2nc1C` (centres unmarked) [Compound 112], the midpoint of inhibition, the IC50, lay at 89.1 nM.

For `CCO[C@H]1CC[C@@H](C(=O)c2ccc3nc(C)c(CC)cc3c2)CC1` [Compound 115], inhibition was half-maximal at 22.9 nM (IC50). In turn, `CCc1cc2cc(C(=O)Cc3ccccc3)ccc2nc1Cl` [Compound 117] gave an IC50 of 44.7 nM. In turn, `CCc1cc2cc(C(=O)[C@H]3CC[C@@H](OC)CC3)ccc2nc1N(C)C` [Compound 128] had an IC50 of 30.2 nM. This IC50 and that of the molecule before are within 1.5-fold of each other.

In turn, `CCc1cc2cc(C(=O)[C@H]3CC[C@H](OC)CC3)ccc2nc1C` [Compound 131] gave a half-inhibitory concentration (IC50) of 64.6 nM. Take `CO[C@H]1CC[C@H](C(=O)c2ccc3nc4c(cc3c2)CCCO4)CC1` [Compound 175]: it took 19.5 nM to reach half-maximal inhibition (IC50). `CO[C@H]1CC[C@H](C(=O)c2ccc3nc4c(cc3c2)CCCS4)CC1` [Compound 178] had an IC50 of 12 nM. Against the preceding molecule, the IC50 is about 1.6-fold lower. Regarding `CCc1cc2cc(C(=O)[C@H]3CC[C@@H](OC)CC3)ccc2nc1NC(=O)c1ccc(=O)[nH]c1` [Compound 191], the midpoint of inhibition, the IC50, lay at 69.2 nM. `CCc1cc2cc(C(=O)[C@H]3CC[C@@H](OC)CC3)ccc2nc1NC(=O)C1CCN(C(C)=O)CC1` [Compound 193] showed an IC50 of 61.7 nM. Same read-out and setting: the result for `CCc1cc2cc(C(=O)C3CCC(OC)CC3)ccc2nc1NC(=O)C12CC3CC(CC(C3)C1)C2` (centres unmarked) [Compound 199] reads 85.1 nM; that for `CCc1cc2cc(C(=O)[C@H]3CC[C@H](OC)CC3)c(C)cc2[nH]c1=O` [Compound 213], 20 nM. `CCc1cc2cc(C(=O)C3(F)CCC(OC)CC3)ccc2nc1C` (centres unmarked) [Compound 224]: the IC50 was 16.6 nM. This IC50 and that of the molecule before are within 1.5-fold of each other. Molecule `CCc1cc2cc(C(=O)Cc3ccccc3OC)ccc2nc1C` [Compound 236] gave an IC50 of 67.6 nM.

`CO[C@H]1CC[C@@H](C(=O)c2ccc3nc(C)ccc3c2)CC1` [Compound 238] showed an IC50 of 16.2 nM. This IC50 lies about 4.2-fold lower than the previous one. In turn, `CCc1cc2cc(C(=O)C3CCCC(OC)C3)ccc2nc1C` (centres unmarked) [Compound 241] had an IC50 of 21.4 nM. This IC50 and that of the molecule before are within 1.5-fold of each other.

`CCc1cc2cc(C(=O)C3(C)CCC(OC)CC3)ccc2nc1C` (centres unmarked) [Compound 242] gave an IC50 of 17.4 nM. Molecule `CCc1cc2cc(C(=O)CC3CCCCC34OCCO4)ccc2nc1Cl` (centres unmarked) [Compound 243] had a concentration for half-maximal inhibition (IC50) of 51.3 nM. The same measure, in the same setting: the result for `CCCO[C@H]1CC[C@@H](C(=O)c2ccc3nc(C)c(CC)cc3c2)CC1` [Compound 255] reads 58.9 nM.

In turn, `CCc1cc2cc(C(=O)Cc3ccc(F)c(F)c3)ccc2nc1C` [Compound 277] showed an IC50 of 36.3 nM.

`CCc1cc2cc(C(=O)C3CC4CC3CC4O)ccc2nc1Cl` (centres unmarked) [Compound 280] showed an IC50 of 45.7 nM.

Take `CCc1cc2cc(C(=O)C3CC4CC(O)C3C4)ccc2nc1Cl` (centres unmarked) [Compound 281]: the IC50 is 23.4 nM. The same measure, in the same setting: the figure for `CCc1cc2cc(C(=O)C3(c4ccccc4)CC3)ccc2nc1C` [Compound 283] is 95.5 nM.

Molecule `COCc1cc2cc(C(=O)[C@H]3CC[C@H](OC)CC3)ccc2nc1C` [Compound 286] gave an IC50 of 93.3 nM. The molecule `CO[C@H]1CC[C@@H](C(=O)c2ccc3nc(C)c(CN(C)C)cc3c2)CC1` [Compound 287] showed an IC50 of 49 nM. This IC50 is about 1.9-fold lower than that of the molecule before. For the molecule `CCc1cc2cc(C(=O)Cc3ccccc3)ccc2nc1N` [Compound 289], half-maximal inhibition (IC50) was put at 53.7 nM. Molecule `CCCc1cc2cc(C(=O)Cc3ccccc3)ccc2nc1C` [Compound 290] gave an IC50 of 87.1 nM. For `CCCc1cc2cc(C(=O)[C@H]3CC[C@@H](OC)CC3)ccc2nc1Cl` [Compound 291], the IC50 is 44.7 nM. `CCc1cc2cc(C(=O)Cc3ccsc3)ccc2nc1Cl` [Compound 296] gave an IC50 of 60.3 nM.

`CCc1cc2cc(C(=O)Cc3cccs3)ccc2nc1C` [Compound 298] showed an IC50 of 33.1 nM. `CCc1cc2cc(C(=O)C34CCC(CC3)C4)ccc2nc1C` [Compound 300]: the IC50 was 83.2 nM. Consider `CCc1cc2cc(C(=O)CC3CC4CCC3C4)ccc2nc1C` (centres unmarked) [Compound 303], for which half-maximal inhibition (IC50) was put at 60.3 nM. Still for that read-out and setting: the result for `CCCc1cc2cc(C(=O)CC3CC4CCC3C4)ccc2nc1C` (centres unmarked) [Compound 307] reads 77.6 nM.

Molecule `O=C(CC1CC2CCC1C2)c1ccc2nc(Cl)ccc2c1` (centres unmarked) [Compound 313] had an IC50 of 44.7 nM. `CCCc1cc2cc(C(=O)C3CC4CCC3C4)ccc2nc1C` (centres unmarked) [Compound 318] gave an IC50 of 95.5 nM.

`CCc1cc2cc(C(=O)C3CCC(OC)CC3)ccc2nc1NC(=O)c1ccc(OC)cc1` (centres unmarked) [Compound 323] gave an IC50 of 52.5 nM. This IC50 lies about 1.8-fold lower than the previous one.

`CCOCC(=O)Nc1nc2ccc(C(=O)C3CCC(OC)CC3)cc2cc1CC` (centres unmarked) [Compound 326] had an IC50 of 38.9 nM. `CCc1cc2cc(C(=O)C3CCC(OC)CC3)ccc2nc1NC(=O)CSCc1ccccc1` (centres unmarked) [Compound 332]: the half-inhibitory concentration (IC50) was 67.6 nM. As to `CCc1cc2cc(C(=O)C3CCC(OC)CC3)ccc2nc1NC(=O)C1CCN(C(C)=O)CC1` (centres unmarked) [Compound 333], the IC50 was 38.9 nM. `CCc1cc2cc(C(=O)C3CCC(OC)CC3)ccc2nc1NC(=O)c1ccc(=O)[nH]c1` (centres unmarked) [Compound 334] had an IC50 of 11.2 nM. Same read-out and setting: the result for `CCc1cc2cc(C(=O)C3CCC(OC)CC3)ccc2nc1NC(=O)CCSC` (centres unmarked) [Compound 338] reads 12.3 nM. Same read-out and setting: the result for `CCc1cc2cc(C(=O)C3CCC(OC)CC3)ccc2nc1NC(=O)CCCc1ccc(OC)c(OC)c1` (centres unmarked) [Compound 341] reads 14.8 nM; that for `CCc1cc2cc(C(=O)C3CCC(OC)CC3)ccc2nc1NC(=O)C1CCC(OC)CC1` (centres unmarked) [Compound 343], 46.8 nM.

`CCc1cc2cc(C(=O)C3CCC(OC)CC3)ccc2nc1NC(=O)C1CCCCC1` (centres unmarked) [Compound 344]: inhibition was half-maximal at 30.2 nM (IC50).

Regarding `CCc1cc2cc(C(=O)C3CCC(OC)CC3)ccc2nc1NC(=O)CCCC1CCCCC1` (centres unmarked) [Compound 346], the IC50 is 18.2 nM.

The molecule `CCc1cc2cc(C(=O)C3CCC(OC)CC3)ccc2nc1NC(=O)C1CCCO1` (centres unmarked) [Compound 356] showed an IC50 of 38 nM. This IC50 is about 2.1-fold higher than that of the molecule before. Take `CCc1cc2cc(C(=O)C3CCC(OC)CC3)ccc2nc1NC(=O)Nc1ccc(N(C)C)cc1` (centres unmarked) [Compound 369]: the IC50 was 39.8 nM. With `CCc1cc2cc(C(=O)C3CCC(OC)CC3)ccc2nc1NC(=O)Nc1ccccc1SC` (centres unmarked) [Compound 373], the IC50 was 56.2 nM. The same measure, in the same setting: the result for `O=C(c1ccc2nc3c(cc2c1)CCS3)[C@H]1CC[C@@H](O)CC1` [Compound 421] reads 11.5 nM; that for `O=C(c1ccc2nc3c(cc2c1)CCS3)[C@H]1CC[C@H](O)CC1` [Compound 422], 95.5 nM.

With `COC1CCC(C(=O)c2ccc3nc4c(cc3c2)CCN4C)CC1` (centres unmarked) [Compound 423], half-maximal inhibition (IC50) required 12.9 nM.

The molecule `COC1CCC(C(=O)c2ccc3nc4c(cc3c2)CCO4)CC1` (centres unmarked) [Compound 429] gave an IC50 of 43.7 nM. This IC50 is about 3.4-fold higher than that of the molecule before. Still for that read-out and setting: the result for `CC1CCC(C(=O)c2ccc3nc4c(cc3c2)CCS4)CC1` (centres unmarked) [Compound 430] reads 40.7 nM. The same measure, in the same setting: the figure for `CC1CCC(C(=O)c2ccc3nc4c(cc3c2)CCS4)CC1` (centres unmarked) [Compound 431] is 24.5 nM; for `O=C(c1ccc2nc3c(cc2c1)CCCO3)C12CC3CC(CC(C3)C1)C2` [Compound 433] it is 16.2 nM; for `O=C(CCc1ccccc1)c1ccc2nc3c(cc2c1)CCCO3` [Compound 434] it is 83.2 nM. On the same count and under the same terms, the result for `O=C(c1ccc2nc3c(cc2c1)CCCO3)C1CC=CCC1` (centres unmarked) [Compound 435] reads 41.7 nM. The molecule `O=C(c1ccc2nc3c(cc2c1)CCCO3)C1CCc2ccccc2C1` (centres unmarked) [Compound 436] showed an IC50 of 55 nM. The molecule `COC1CCCC(C(=O)c2ccc3nc4c(cc3c2)CCCO4)C1` (centres unmarked) [Compound 437] had an IC50 of 16.6 nM. This IC50 lies about 3.3-fold lower than the previous one. In the case of `O=C(c1ccc2nc3c(cc2c1)CCCO3)C1COc2ccccc2O1` (centres unmarked) [Compound 438], the IC50 is 64.6 nM. Compared with the last molecule, the IC50 is about 3.9-fold higher.
